US20120015907A1, “Furopyridine compounds and uses thereof” (NOVARTIS AG, priority 2010, published 2012)

Each compound was assayed against T1, HCV polymerase (Hepatitis C virus genotype 1b, UniProt Q9WMX2) (assay: biochemical). Conditions: NS5B polymerase IC50 μM, polymerase assay of Biological Example 1.
T1 construct: (His)6 (C)

Row | Structure (SMILES) | IC50
1 | CCOP(C)(=O)CCCCCN(c1nc2oc(-c3ccc(C)cc3)c(C(=O)NC)c2cc1C1CC1)S(C)(=O)=O (stereo not drawn) [Example 23.99995, ethyl 5-(N-(5-cyclopropyl-3-(methylcarbamoyl)-2-p-tolylfuro[2,3-b]pyridin-6-yl)methylsulfonamido)pentyl (methyl)phosphinate] | 0.009 µM
2 | CNC(=O)c1c(-c2ccc(C)cc2)oc2nc(N(CCCP(C)(=O)O)S(C)(=O)=O)c(C3CC3)cc12 [Example 23.99998, 3-(N-(5-cyclopropyl-3-(methylcarbamoyl)-2-p-tolylfuro[2,3-b]pyridin-6-yl)methylsulfonamido)propyl (methyl)phosphinic acid] | 0.005 µM
3 | CNC(=O)c1c(-c2ccc(C)cc2)oc2nc(N(CCCCP(C)(=O)O)S(C)(=O)=O)c(C3CC3)cc12 [Example 23.99999, 4-(N-(5-cyclopropyl-3-(methylcarbamoyl)-2-p-tolylfuro[2,3-b]pyridin-6-yl)methylsulfonamido)butyl (methyl)phosphinic acid] | 0.006 µM
4 | CNC(=O)c1c(-c2ccc(C)cc2)oc2nc(N(CCCCCP(C)(=O)O)S(C)(=O)=O)c(C3CC3)cc12 [Example 23.999991, 5-(N-(5-cyclopropyl-3-(methylcarbamoyl)-2-p-tolylfuro[2,3-b]pyridin-6-yl)methylsulfonamido)pentyl (methyl)phosphinic acid] | 0.004 µM

Same assay, conditions: polymerase assay of Biological Example 1; read-out: NS5B polymerase IC50

Row | IC50 | Structure (SMILES)
5 | 0.003 µM | CNC(=O)c1c(-c2ccc(C)cc2)oc2nc(N(CCCCO)S(C)(=O)=O)c(C3CC3)cc12 [Example 23.99994, 5-cyclopropyl-6-(N-(4-hydroxybutyl)methylsulfonamido)-N-methyl-2-p-tolylfuro[2,3-b]pyridine-3-carboxamide]
6 | 0.002 µM | CNC(=O)c1c(-c2ccc(C)cc2)oc2nc(N(CCCCCO)S(C)(=O)=O)c(C3CC3)cc12 [Example 23.99996, 5-cyclopropyl-6-(N-(5-hydroxypentyl)methylsulfon amido)-N-methyl-2-p-tolylfuro[2,3-b]pyridine-3-carboxamide]
7 | 0.004 µM | CNC(=O)c1c(-c2ccc(C)cc2)oc2nc(N(CCCO)S(C)(=O)=O)c(C3CC3)cc12 [Example 23.99997, 5-cyclopropyl-6-(N-(3-hydroxypropyl)methylsulfonamido)-N-methyl-2-p-tolylfuro[2,3-b]pyridine-3-carboxamide]
8 | 0.002 µM | CNC(=O)c1c(-c2ccc(C)cc2)oc2nc(N(CCCNS(=O)(=O)C(F)(F)F)S(C)(=O)=O)c(C3CC3)cc12 [Example 23.999992, 5-cyclopropyl-N-methyl-2-p-tolyl-6-(N-(3-(trifluoromethylsulfonamido)propyl)methylsulfonamido) furo[2,3-b]pyridine-3-carboxamide]
9 | 0.016 µM | CNC(=O)c1c(-c2ccc(C)cc2)oc2nc(N(CCCCN)S(C)(=O)=O)c(C3CC3)cc12 [Example 23.999993, 6-(N-(4-aminobutyl)methylsulfonamido)-5-cyclopropyl-N-methyl-2-p-tolylfuro[2,3-b]pyridine-3-carboxamide]
10 | 0.014 µM | CNC(=O)c1c(-c2ccc(C)cc2)oc2nc(N(CCCCCN)S(C)(=O)=O)c(C3CC3)cc12 [Example 23.999994, 6-(N-(5-aminopentyl)methylsulfonamido)-5-cyclopropyl-N-methyl-2-p-tolylfuro[2,3-b]pyridine-3-carboxamide]
11 | 0.014 µM | CNC(=O)c1c(-c2ccc(C)cc2)oc2nc(N(CCCN)S(C)(=O)=O)c(C3CC3)cc12 [Example 23.999995, 6-(N-(3-aminopropyl)methylsulfonamido)-5-cyclopropyl-N-methyl-2-p-tolylfuro[2,3-b]pyridine-3-carboxamide]
12 | 0.016 µM | CNC(=O)c1c(-c2ccc(C)cc2)oc2nc(N(CCCNCCCC(=O)O)S(C)(=O)=O)c(C3CC3)cc12 [Example 23.999996, 4-(3-(N-(5-cyclopropyl-3-(methylcarbamoyl)-2-p-tolylfuro[2,3-b]pyridin-6-yl)methylsulfonamido)propylamino)butanoic acid]
13 | 0.005 µM | CNC(=O)c1c(-c2ccc(C)cc2)oc2nc(N(CCCN3CCCC3=O)S(C)(=O)=O)c(C3CC3)cc12 [Example 23.999997, 5-cyclopropyl-N-methyl-6-(N-(3-(2-oxopyrrolidin-1-yl)propyl)methylsulfonamido)-2-p-tolylfuro[2,3-b] pyridine-3-carboxamide]
14 | 0.005 µM | CNC(=O)c1c(-c2ccc(C)cc2)oc2nc(N(CCOCCCC(=O)O)S(C)(=O)=O)c(C3CC3)cc12 [Example 23.999998, 4-(2-(N-(5-cyclopropyl-3-(methylcarbamoyl)-2-p-tolylfuro[2,3-b]pyridin-6-yl)methylsulfonamido)ethoxy)butanoic acid]
15 | 0.02 µM | CNC(=O)c1c(-c2ccc(C)cc2)oc2nc(N(CCOCCC(CCOC)C(=O)O)S(C)(=O)=O)c(C3CC3)cc12 (stereo not drawn) [Example 23.999999, 4-{2-[(5-Cyclopropyl-3-methylcarbamoyl-2-p-tolyl-furo[2,3-b]pyridin-6-yl)-methanesulfonyl-amino]-ethoxy}-2-(2-methoxy-ethyl)-butyric acid]
16 | 0.078 µM | C=Cc1cc2c(C(=O)NC)c(-c3ccc(F)cc3)oc2nc1N(CCCCC(=O)O)S(C)(=O)=O [Example 24.1, 5-(N-(2-(4-fluorophenyl)-3-(methylcarbamoyl)-5-vinylfuro[2,3-b]pyridin-6-yl)methylsulfonamido) pentanoic acid]
17 | 0.003 µM | CNC(=O)c1c(-c2ccc(F)cc2)oc2nc(N(CCC3CCS(=O)(=O)C3)S(C)(=O)=O)c(C3CC3)cc12 (stereo not drawn) [Example 25.91, 5-Cyclopropyl-6-{[2-(1,1-dioxo-tetrahydro-thiophen-3-yl)-ethyl]-methanesulfonyl-amino}-2-(4-fluoro-phenyl)-furo[2,3-b]pyridine-3-carboxylic acid methylamide]
18 | 0.003 µM | CNC(=O)c1c(-c2ccc(F)cc2)oc2nc(N(CCCCC(=O)O)S(C)(=O)=O)c(C3CC3)cc12 [Example 26.9, 5-(N-(5-cyclopropyl-2-(4-fluorophenyl)-3-(methylcarbamoyl)furo[2,3-b]pyridin-6-yl)methylsulfonamido) pentanoic acid]
19 | 0.012 µM | CNC(=O)c1c(-c2ccc(F)cc2)oc2nc(N(CCCC(C)(C)C(=O)O)S(C)(=O)=O)c(C3CC3)cc12 [Example 27.1, 5-(N-(5-cyclopropyl-2-(4-fluorophenyl)-3-(methylcarbamoyl)furo[2,3-6]pyridin-6-yl)methylsulfonamido)-2,2-dimethylpentanoic acid]
20 | 0.023 µM | CNC(=O)c1c(-c2ccc(Oc3ccccc3F)cc2)oc2nc(N(CCCCC(=O)O)S(C)(=O)=O)c(C3CC3)cc12 [Example 27.3, 5-(N-(5-cyclopropyl-2-(4-(2-fluorophenoxy)phenyl)-3-(methylcarbamoyl)furo[2,3-b]pyridin-6-yl)methylsulfonamido) pentanoic acid]
21 | 0.003 µM | CNC(=O)c1c(-c2ccc(C)cc2)oc2nc(N(CCCC3(C(=O)O)CCOCC3)S(C)(=O)=O)c(C3CC3)cc12 [Example 28.4, 4-(3-(N-(5-cyclopropyl-3-(methylcarbamoyl)-2-p-tolylfuro[2,3-b]pyridin-6-yl)methylsulfonamido)propyl)tetrahydro-2H-pyran-4-carboxylic acid]
22 | 0.002 µM | CNC(=O)c1c(-c2ccc(C)cc2)oc2nc(N(CCCC(=O)O)S(C)(=O)=O)c(C3CC3)cc12 [Example 28.9, 4-(N-(5-cyclopropyl-3-(methylcarbamoyl)-2-p-tolylfuro[2,3-b]pyridin-6-yl)methylsulfonamido) butanoic acid]
23 | 0.001 µM | CCc1ccc(-c2oc3nc(N(CCCC(C)(C)C(=O)O)S(C)(=O)=O)c(C4CC4)cc3c2C(=O)NC)cc1 [Example 29, 5-{[5-Cyclopropyl-2-(4-ethyl-phenyl)-3-methylcarbamoyl-furo[2,3-b]pyridin-6-yl]-methanesulfonyl-amino}-2,2-dimethyl-pentanoic acid]
24 | 0.002 µM | CNC(=O)c1c(-c2ccc(C)cc2)oc2nc(N(CCCC3(C(=O)O)CCC3)S(C)(=O)=O)c(C3CC3)cc12 [Example 29.1, 1-{3-[(5-Cyclopropyl-3-methylcarbamoyl-2-p-tolyl-furo[2,3-b]pyridin-6-yl)-methanesulfonyl-amino]-propyl}-cyclobutanecarboxylic acid]
25 | 0.001 µM | CNC(=O)c1c(-c2ccc(C)cc2)oc2nc(N(CCCCC(C)(C)C(=O)O)S(C)(=O)=O)c(C3CC3)cc12 [Example 29.2, 6-(N-(5-cyclopropyl-3-(methylcarbamoyl)-2-p-tolylfuro[2,3-b]pyridin-6-yl)methylsulfonamido)-2,2-dimethylhexanoic acid]
26 | 0.006 µM | CNC(=O)c1c(-c2ccc(C)cc2)oc2nc(N(CCC3CCCC3C(=O)O)S(C)(=O)=O)c(C3CC3)cc12 (stereo not drawn) [Example 29.3, 2-(2-(N-(5-cyclopropyl-3-(methylcarbamoyl)-2-p-tolylfuro[2,3-b]pyridin-6-yl)methylsulfonamido)ethyl) cyclopentanecarboxylic acid]
27 | 0.003 µM | CNC(=O)c1c(-c2ccc(C)cc2)oc2nc(N(CCCC3CCCC3C(=O)O)S(C)(=O)=O)c(C3CC3)cc12 (stereo not drawn) [Example 29.4, 2-(3-(N-(5-cyclopropyl-3-(methylcarbamoyl)-2-p-tolylfuro[2,3-b]pyridin-6-yl)methylsulfonamido)propyl) cyclopentanecarboxylic acid]
28 | 0.002 µM | CNC(=O)c1c(-c2ccc(C)cc2)oc2nc(N(CCCC#N)S(C)(=O)=O)c(C3CC3)cc12 [Example 29.5, 6-(N-(3-cyanopropyl)methylsulfonamido)-5-cyclopropyl-N-methyl-2-p-tolylfuro[2,3-b]pyridine-3-carboxamide]
29 | 0.002 µM | CNC(=O)c1c(-c2ccc(C)cc2)oc2nc(N(CCCCC#N)S(C)(=O)=O)c(C3CC3)cc12 [Example 29.6, 6-(N-(4-cyanobutyl)methylsulfonamido)-5-cyclopropyl-N-methyl-2-p-tolylfuro[2,3-b]pyridine-3-carboxamide]
30 | 0.002 µM | CCc1ccc(-c2oc3nc(N(CCCC4(C(=O)O)CCOCC4)S(C)(=O)=O)c(C4CC4)cc3c2C(=O)NC)cc1 [Example 29.7, 4-(3-(N-(5-cyclopropyl-2-(4-ethylphenyl)-3-(methylcarbamoyl)furo[2,3-b]pyridin-6-yl)methylsulfonamido)propyl) tetrahydro-2H-pyran-4-carboxylic acid]
